Laboratory results reported in PubChem BioAssay AID2060897 (Molecular Pharmacology Branch, DTP, NCI, 2025).

Test system: 966289-007-R4-J1-PDC complex spheroid viability
Assay: Anticancer human tumor 966289-007-R4-J1-PDC patient-derived pancreatic adenocarcinoma cell line growth inhibition [RAS]
Conditions: for IC50: curve of first compound; for viability, T/C: stronger effect = lower value
Procedure, shortened: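 Multi-cell-type spheroids: tumor cells plus HUVEC endothelial cells and mesenchymal stem cells. RAS-pathway inhibitors were combined with targeted agents, each dosed in half-log steps down from clinical Cmax, or from 10 microM when Cmax was unknown.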
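Further: spheroids exposed to agents for one week before readout.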
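Wherever viability, T/C is given: percent viability relative to DMSO vehicle control wells as 100%.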

For `CCc1c2c(nc3ccc(O)cc13)-c1cc3c(c(=O)n1C2)COC(=O)[C@]3(O)CC` + C#Cc1c(F)ccc2cc(O)cc(-c3ncc4c(N5CC6CCC(C5)N6)nc(OCC56CCCN5CC(F)C6)nc4c3F)c12, the IC50 (second compound 0.0316 µM) was 1.59 nM, the IC50 (second compound 0.1 µM) was 1.5 nM and the IC50 (second compound 0.316 µM) was 1.43 nM. The IC50 (second compound 1 µM) was 1.44 nM, the IC50 (second compound 3.16 µM) was 1.51 nM and the IC50 (second compound 10 µM) was 1.4 nM. It also gave a viability, T/C (second compound 0.0316 µM, first compound 0.000949 µM) of 88.6%, a viability, T/C (second compound 0.0316 µM, first compound 0.003 µM) of 2.5% and a viability, T/C (second compound 0.0316 µM, first compound 0.00949 µM) of 1.27%. For the same molecule, the viability, T/C (second compound 0.0316 µM, first compound 0.03 µM) was 0.94%, the viability, T/C (second compound 0.0316 µM, first compound 0.0949 µM) was 1.06% and the viability, T/C (second compound 0.0316 µM, first compound 0.3 µM) was 1.14%. It also gave a viability, T/C (second compound 0.1 µM, first compound 0.000949 µM) of 81.8%, a viability, T/C (second compound 0.1 µM, first compound 0.003 µM) of 2.09% and a viability, T/C (second compound 0.1 µM, first compound 0.00949 µM) of 0.95%. For the same molecule, the viability, T/C (second compound 0.1 µM, first compound 0.03 µM) was 1.18%, the viability, T/C (second compound 0.1 µM, first compound 0.0949 µM) was 0.87% and the viability, T/C (second compound 0.1 µM, first compound 0.3 µM) was 1.15%. For the same molecule, the viability, T/C (second compound 0.316 µM, first compound 0.000949 µM) was 76.5%, the viability, T/C (second compound 0.316 µM, first compound 0.003 µM) was 2.19% and the viability, T/C (second compound 0.316 µM, first compound 0.00949 µM) was 1.22%. The viability, T/C (second compound 0.316 µM, first compound 0.03 µM) was 1.04%, the viability, T/C (second compound 0.316 µM, first compound 0.0949 µM) was 0.89% and the viability, T/C (second compound 0.316 µM, first compound 0.3 µM) was 1.23%. The viability, T/C (second compound 1 µM, first compound 0.000949 µM) was 77.1%, the viability, T/C (second compound 1 µM, first compound 0.003 µM) was 1.99% and the viability, T/C (second compound 1 µM, first compound 0.00949 µM) was 1.31%. It also gave a viability, T/C (second compound 1 µM, first compound 0.03 µM) of 1.22%, a viability, T/C (second compound 1 µM, first compound 0.0949 µM) of 1.16% and a viability, T/C (second compound 1 µM, first compound 0.3 µM) of 1.16%. For the same molecule, the viability, T/C (second compound 3.16 µM, first compound 0.000949 µM) was 82.2%, the viability, T/C (second compound 3.16 µM, first compound 0.003 µM) was 2.82% and the viability, T/C (second compound 3.16 µM, first compound 0.00949 µM) was 1.66%. The viability, T/C (second compound 3.16 µM, first compound 0.03 µM) was 1.34%, the viability, T/C (second compound 3.16 µM, first compound 0.0949 µM) was 1.54% and the viability, T/C (second compound 3.16 µM, first compound 0.3 µM) was 1.55%. The viability, T/C (second compound 10 µM, first compound 0.000949 µM) was 75.1%, the viability, T/C (second compound 10 µM, first compound 0.003 µM) was 1.37% and the viability, T/C (second compound 10 µM, first compound 0.00949 µM) was 1.04%. For the same molecule, the viability, T/C (second compound 10 µM, first compound 0.03 µM) was 0.91%, the viability, T/C (second compound 10 µM, first compound 0.0949 µM) was 0.84% and the viability, T/C (second compound 10 µM, first compound 0.3 µM) was 0.55%.
`Nc1ccn(C2OC(CO)C(O)C2(F)F)c(=O)n1` (centres undefined) + C#Cc1c(F)ccc2cc(O)cc(-c3ncc4c(N5CC6CCC(C5)N6)nc(OCC56CCCN5CC(F)C6)nc4c3F)c12 gave an IC50 (second compound 0.0316 µM) of 7.64 nM, an IC50 (second compound 0.1 µM) of 11.9 nM and an IC50 (second compound 0.316 µM) of 8.38 nM. The IC50 (second compound 1 µM) was 8.9 nM, the IC50 (second compound 3.16 µM) was 8.38 nM and the IC50 (second compound 10 µM) was 7.88 nM. For the same molecule, the viability, T/C (second compound 0.0316 µM, first compound 0.00316 µM) was 108%, the viability, T/C (second compound 0.0316 µM, first compound 0.01 µM) was 32.5% and the viability, T/C (second compound 0.0316 µM, first compound 0.0316 µM) was 2.19%. It also gave a viability, T/C (second compound 0.0316 µM, first compound 0.1 µM) of 1.41%, a viability, T/C (second compound 0.0316 µM, first compound 0.316 µM) of 1.38% and a viability, T/C (second compound 0.0316 µM, first compound 1 µM) of 1.56%. For the same molecule, the viability, T/C (second compound 0.1 µM, first compound 0.00316 µM) was 99.4%, the viability, T/C (second compound 0.1 µM, first compound 0.01 µM) was 58.5% and the viability, T/C (second compound 0.1 µM, first compound 0.0316 µM) was 1.48%. For the same molecule, the viability, T/C (second compound 0.1 µM, first compound 0.1 µM) was 1.34%, the viability, T/C (second compound 0.1 µM, first compound 0.316 µM) was 1.6% and the viability, T/C (second compound 0.1 µM, first compound 1 µM) was 1.65%. The viability, T/C (second compound 0.316 µM, first compound 0.00316 µM) was 91.6%, the viability, T/C (second compound 0.316 µM, first compound 0.01 µM) was 42.4% and the viability, T/C (second compound 0.316 µM, first compound 0.0316 µM) was 1.95%. For the same molecule, the viability, T/C (second compound 0.316 µM, first compound 0.1 µM) was 1.65%, the viability, T/C (second compound 0.316 µM, first compound 0.316 µM) was 1.22% and the viability, T/C (second compound 0.316 µM, first compound 1 µM) was 1.73%. It also gave a viability, T/C (second compound 1 µM, first compound 0.00316 µM) of 101%, a viability, T/C (second compound 1 µM, first compound 0.01 µM) of 44.2% and a viability, T/C (second compound 1 µM, first compound 0.0316 µM) of 2.02%. The viability, T/C (second compound 1 µM, first compound 0.1 µM) was 1.61%, the viability, T/C (second compound 1 µM, first compound 0.316 µM) was 1.68% and the viability, T/C (second compound 1 µM, first compound 1 µM) was 1.67%. The viability, T/C (second compound 3.16 µM, first compound 0.00316 µM) was 97.4%, the viability, T/C (second compound 3.16 µM, first compound 0.01 µM) was 41.4% and the viability, T/C (second compound 3.16 µM, first compound 0.0316 µM) was 2.43%. For the same molecule, the viability, T/C (second compound 3.16 µM, first compound 0.1 µM) was 2.49%, the viability, T/C (second compound 3.16 µM, first compound 0.316 µM) was 2.42% and the viability, T/C (second compound 3.16 µM, first compound 1 µM) was 2.25%. For the same molecule, the viability, T/C (second compound 10 µM, first compound 0.00316 µM) was 99.1%, the viability, T/C (second compound 10 µM, first compound 0.01 µM) was 37.1% and the viability, T/C (second compound 10 µM, first compound 0.0316 µM) was 1.37%. The viability, T/C (second compound 10 µM, first compound 0.1 µM) was 1.51%, the viability, T/C (second compound 10 µM, first compound 0.316 µM) was 1.83% and the viability, T/C (second compound 10 µM, first compound 1 µM) was 1.37%.
